Test results as given in patent US11191742B2, “Methods of treating neurodegenerative disorders in a particular population” (ALZHEON, INC., priority 2015, dated 2021).

What was measured:
Type in all cases: in vivo, human
[1] = tested on: APOE4 heterozygous patients with Alzheimer's disease; assay: Phase 3 trials of tramiprosate, ADAS-Cog score, heterozygous APOE4+ patients; settings: Heterozygous APOE4+ patients ≤85 years
Protocol: (§1) The delta value in all of these tables is calculated by measuring the increase in score over baseline for each patient in a treatment group and obtaining the mean increase for such group and then subtracting that value from the mean increase in score over baseline for all patients in the placebo group. Thus, a positive delta value in these tables represents an improvement over the placebo group. Phase 3 human clinical trials of tramiprosate to treat Alzheimer's disease at doses of 100 mg BID and 150 mg BID for up to 78 weeks were run in both North America and Europe (1691 total patients enrolled). Placebos in both trials were treatment with donepezil either alone or in combination with memantine. ADAS-Cog scores and CDR-SB scores were obtained every 13 weeks for patients that remained in the trial. The patients were genotyped for APOE4 and the severity of their disease was measured using MMSE prior to the beginning of treatment. The data from both trials were merged for certain statistical analyses. […] We then performed additional subgroup analysis, subgrouping by APOE4 genotype/allele status (APOE4 heterozygous or APOE4 homozygous) and by disease severity (mild vs moderate) to determine if the number of c alleles and/or the severity of disease predicted a better outcome of tramiprosate therapy. […] In Table 3, *control treatment is donepezil either alone or in combination with memantine. Positive delta values quantitate the amount by which average increase in ADAS-Cog Score points above baseline for the control group exceeded the average increase in ADAS-Cog Score points above baseline for the treatment group.

[2] = tested on: APOE4+ patients with Alzheimer's disease; assay: Phase 3 trials of tramiprosate, ADAS-Cog score, all APOE4+ patients; settings: for ADAS-Cog Score Change over Standard of Care (Δ improvement vs control): All APOE4+ patients ≤85 years
Protocol: as §1, with “1,” for “3,”

[3] = Safety in Phase 3 tramiprosate studies
Protocol: In some embodiments, the subject is determined to have moderate AD when the subject has a baseline MMSE score in the range of 16-19. In some embodiments, the subject is determined to have mild AD when the subject has a baseline MMSE score in the range of 20-26. […] Safety data from Phase 3 tramiprosate studies support bridging to the ALZ-801 safety database, based on bioequivalence. The disclosures in provisional application Ser. No. 62/216,404, filed Sep. 10, 2015, 62/290,287, filed Feb. 2, 2016, and 62/365,809, filed Jul. 22, 2016 are incorporated herein for all purposes and particularly regarding dosages and formulations.

[4] = Mild (MMSE 20-26), 100 mg BID, 52 weeks
[5] = Mild (MMSE 20-26), 100 mg BID, 65 weeks
[6] = Mild (MMSE 20-26), 100 mg BID, 78 weeks
[7] = Mild (MMSE 20-26), 150 mg BID, 52 weeks
[8] = Mild (MMSE 20-26), 150 mg BID, 65 weeks
[9] = Mild (MMSE 20-26), 150 mg BID, 78 weeks
[10] = Mild-to-Moderate (MMSE 16-26), 100 mg BID, 52 weeks
[11] = Mild-to-Moderate (MMSE 16-26), 100 mg BID, 65 weeks
[12] = Mild-to-Moderate (MMSE 16-26), 100 mg BID, 78 weeks
[13] = Mild-to-Moderate (MMSE 16-26), 150 mg BID, 52 weeks
[14] = Mild-to-Moderate (MMSE 16-26), 150 mg BID, 65 weeks
[15] = Mild-to-Moderate (MMSE 16-26), 150 mg BID, 78 weeks
[16] = Moderate (MMSE 16-19), 100 mg BID, 52 weeks
[17] = Moderate (MMSE 16-19), 100 mg BID, 65 weeks
[18] = Moderate (MMSE 16-19), 100 mg BID, 78 weeks
[19] = Moderate (MMSE 16-19), 150 mg BID, 52 weeks
[20] = Moderate (MMSE 16-19), 150 mg BID, 65 weeks
[21] = Moderate (MMSE 16-19), 150 mg BID, 78 weeks

NCCCS(=O)(=O)O [Tramiprosate, 3-amino-1-propanesulfonic acid]
ADAS-Cog Score Change over Standard of Care (Δ improvement vs control) [1, 4]: 0.9 points | ADAS-Cog Score Change over Standard of Care (Δ improvement vs control) [1, 5]: −0.3 points | ADAS-Cog Score Change over Standard of Care (Δ improvement vs control) [1, 6]: 0.8 points | ADAS-Cog Score Change over Standard of Care (Δ improvement vs control) [1, 7]: 0.1 points | ADAS-Cog Score Change over Standard of Care (Δ improvement vs control) [1, 8]: −0.6 points | ADAS-Cog Score Change over Standard of Care (Δ improvement vs control) [1, 9]: −0.5 points | ADAS-Cog Score Change over Standard of Care (Δ improvement vs control) [1, 10]: 2.0 points | ADAS-Cog Score Change over Standard of Care (Δ improvement vs control) [1, 11]: 0.8 points | ADAS-Cog Score Change over Standard of Care (Δ improvement vs control) [1, 12]: 1.1 points | ADAS-Cog Score Change over Standard of Care (Δ improvement vs control) [1, 13]: 0.5 points | ADAS-Cog Score Change over Standard of Care (Δ improvement vs control) [1, 14]: 0.0 points | ADAS-Cog Score Change over Standard of Care (Δ improvement vs control) [1, 15]: −0.4 points | ADAS-Cog Score Change over Standard of Care (Δ improvement vs control) [1, 16]: 4.4 points | ADAS-Cog Score Change over Standard of Care (Δ improvement vs control) [1, 17]: 3.4 points | ADAS-Cog Score Change over Standard of Care (Δ improvement vs control) [1, 18]: 2 points | ADAS-Cog Score Change over Standard of Care (Δ improvement vs control) [1, 19]: 1.5 points | ADAS-Cog Score Change over Standard of Care (Δ improvement vs control) [1, 20]: 1.4 points | ADAS-Cog Score Change over Standard of Care (Δ improvement vs control) [1, 21]: 0 points | Effect on ADAS-Cog compared with the placebo ([2]; APOE4+ subgroup, both 100 mg and 150 mg treatment groups): statistically significant effect | ADAS-Cog Score Change over Standard of Care (Δ improvement vs control) [2, 4]: 0.82 points | ADAS-Cog Score Change over Standard of Care (Δ improvement vs control) [2, 5]: 0.99 points | ADAS-Cog Score Change over Standard of Care (Δ improvement vs control) [2, 6]: 1.3 points | ADAS-Cog Score Change over Standard of Care (Δ improvement vs control) [2, 7]: 0.17 points | ADAS-Cog Score Change over Standard of Care (Δ improvement vs control) [2, 8]: 0.71 points | ADAS-Cog Score Change over Standard of Care (Δ improvement vs control) [2, 9]: 0.27 points | ADAS-Cog Score Change over Standard of Care (Δ improvement vs control) [2, 10]: 1.67 points | ADAS-Cog Score Change over Standard of Care (Δ improvement vs control) [2, 11]: 1.82 points | ADAS-Cog Score Change over Standard of Care (Δ improvement vs control) [2, 12]: 2.03 points | ADAS-Cog Score Change over Standard of Care (Δ improvement vs control) [2, 13]: 0.95 points | ADAS-Cog Score Change over Standard of Care (Δ improvement vs control) [2, 14]: 1.23 points | ADAS-Cog Score Change over Standard of Care (Δ improvement vs control) [2, 15]: 0.77 points | ADAS-Cog Score Change over Standard of Care (Δ improvement vs control) [2, 16]: 3.45 points | ADAS-Cog Score Change over Standard of Care (Δ improvement vs control) [2, 17]: 3.45 points | ADAS-Cog Score Change over Standard of Care (Δ improvement vs control) [2, 18]: 3.32 points | ADAS-Cog Score Change over Standard of Care (Δ improvement vs control) [2, 19]: 2.52 points | ADAS-Cog Score Change over Standard of Care (Δ improvement vs control) [2, 20]: 2.23 points | ADAS-Cog Score Change over Standard of Care (Δ improvement vs control) [2, 21]: 1.57 points | Most common adverse event [3]: nausea | Safety profile [3]: favorable safety profile
